Columns and labels:
[1] = Measurement of solubility (Chinese Pharmacopoeia 2010 method); type: physicochemical
From the text: Judgement standard of solubility are shown as table A.

[2] = Pharmacokinetic evaluation in beagles after intravenous injection and oral administration; type: in vivo; settings: 0.1 mg/kg
Protocol: The test sample (Complex (IA) prepared from example 2 of the invention) was dissolved in normal saline (100%) to get a solution at a concentration of 0.04 mg/mL, which was administered by i.v; the same test sample was suspended in 0.5% HPMC to get a suspension at a concentration of 0.02 mg/mL, 0.10 mg/mL, 0.50 mg/mL, 2.00 mg/mL, which was administered by gavage. The beagles were grouped randomly, each dosage group had 6 beagles, half male and half female, which were fasted for 12 h before administered, free drank. After administration of 4 h, beagles uniform ate. The single oral administration group was grouped to 4 dosage groups, which were administered the test sample suspension by gavage respectively, the dosage respectively was 0.1, 0.5, 2.5 and 10 mg/kg, and the volume of the suspension was 5 mL/kg. The blood samples were collected before administration of 0 h, and after administration of 0.25, 0.5, 1.0, 2.0, 4.0, 6.0, 8.0, 10, 12 and 48 h from lateral small saphenous vein or medial head vein of forelimb, which were placed into EDTA-K2 anticoagulative tubes. The i.v group had one dosage group, the test sample solution was administered by i.v at a dosage of 0.1 mg/kg, and the volume of the solution was 2.5 mL/kg. The blood samples were collected before administration of 0 h, and after administration of 5 min, 15 min, 0.5, 1.0, 2.0, 4.0, 6.0, 8.0, 10, 12 and 48 h from lateral small saphenous vein or medial head vein of forelimb, which were placed into EDTA-K2 anticoagulative tubes. The blood samples were centrifuged for 2 min at 11000 rpm, the plasma samples were isolated and stored at −70° C.±10° C.
The concentration of the test sample in plasma was analyzed by the LC-MS/MS method, the pharmacokinetic parameters were calculaged by the […] model method using WinNonlin 6.3 software, and drug-time curve was plotted.
The LC/MS/MS system comprised Agilent 1200 series vacuum […], binary pumps, well-plate autosampler, thermostatted column compartment, the API 4000 QTRAP Triple Quadrupole Mass Spectrometer with an electrosprayionization (ESI) source. Quantitative analysis was carried out using MRM mode.
A Waters Xbridge-C18, 2.1×30 mm, […] column was used for the analysis, 5 μL of the sample was injected. Analysis condition: The mobile phase was […] ammonium formate+0.1% formic acid in water (A) and 2 mM ammonium formate+0.1% formic acidin methanol (B). The flow rate was 0.4 mL/min And the gradient of Mobile phase was in the Table E.

human SGLT-2 = biological target: T1, human SGLT-2 (Homo sapiens, UniProt P31639); experiment: Inhibitory activity against SGLT-2, [14C]-AMG uptake in CHO cells; type: cell-based
T1 construct: expressed in transfected cells; host or cells: CHO cells (Flp-in CHO)
T1 sequence (P31639 1-672): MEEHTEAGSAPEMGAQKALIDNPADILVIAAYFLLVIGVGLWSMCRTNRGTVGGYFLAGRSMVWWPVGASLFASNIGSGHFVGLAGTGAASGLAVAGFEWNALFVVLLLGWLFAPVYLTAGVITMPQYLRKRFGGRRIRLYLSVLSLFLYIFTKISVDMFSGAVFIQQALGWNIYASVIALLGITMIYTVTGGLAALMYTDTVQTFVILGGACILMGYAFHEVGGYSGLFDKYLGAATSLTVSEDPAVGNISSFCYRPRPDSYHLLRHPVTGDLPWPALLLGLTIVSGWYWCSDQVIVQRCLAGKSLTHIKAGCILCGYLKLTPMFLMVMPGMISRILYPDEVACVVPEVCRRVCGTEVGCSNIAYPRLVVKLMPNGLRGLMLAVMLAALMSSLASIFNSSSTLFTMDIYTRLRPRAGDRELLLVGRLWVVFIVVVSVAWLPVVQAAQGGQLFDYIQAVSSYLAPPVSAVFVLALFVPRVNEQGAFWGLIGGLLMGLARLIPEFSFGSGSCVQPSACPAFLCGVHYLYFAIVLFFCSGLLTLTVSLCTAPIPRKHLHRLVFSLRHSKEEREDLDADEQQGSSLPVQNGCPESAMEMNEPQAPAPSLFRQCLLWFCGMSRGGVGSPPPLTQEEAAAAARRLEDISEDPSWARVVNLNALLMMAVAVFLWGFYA
Protocol: The following method was used for detecting inhibitory activity of the compounds of the invention against SGLT-1 and SGLT-2.
3×10^4 of FIP-in CHO cells transfected Mock and CHO cells expressing human SGLT-1/SGLT-2 gene were seeded into a 96-well cell culture plate; the cells were incubated for 12 hours, and then to each well was added 150 μL of Na-free buffer to wash the cells once; and then to each well were added 50 μL of Na buffer containing the compound at different concentrations and 0.5 μM [^14C]-AMG, and the plate was incubated in a incubator at 37° C. for 1 hour, the reaction was terminated by adding 150 μL of pre-cooled Na-free buffer; the cells were further washed with Na-free buffer 3 times and the residual liquid was removed; to each well was added 20 μL of pre-cooled NaOH ([…]), the plate was vibrated at 900 rpm for 5 min; and then to each well was added 80 μL of scintillation solution, the plate was vibrated at 600 rpm for 5 min; the plate was analyzed on liquid scintillation counter.

[3] = solvent DMA, sampling weight 100.02, solvent volume 0.095 mL
[4] = solvent DMSO, sampling weight 100.16, solvent volume 0.095 mL
[5] = solvent acetonitrile, sampling weight 100.20, solvent volume 2.90 mL
[6] = solvent ethanol, sampling weight 100.10, solvent volume 2.90 mL
[7] = solvent methanol, sampling weight 100.23, solvent volume 0.095 mL
[8] = both sexes, beagle, dog, plasma, iv, i.v
[9] = both sexes, beagle, dog, plasma, po, p.o

solubility (summary in words) ([1]; in acetonitrile, methanol, ethanol, DMSO and DMA): good solubility
yes/no dissolved [1, 3]: yes
yes/no dissolved [1, 4]: yes
yes/no dissolved [1, 5]: yes
yes/no dissolved [1, 6]: yes
yes/no dissolved [1, 7]: yes
yes/no dissolved ([1]; solvent water, sampling weight 10.33, solvent volume 102 mL): no
AUC(0-t) [2, 8]: 617 ng·h/mL
Cmax [2, 8]: 148 ng/mL
half-life [2, 8]: 8.97 h
half-life ([2]; both sexes, beagle, dog, plasma, oral, p.o): 8.88 h
bioavailability ([2]; both sexes, beagle, dog, plasma, po, p.o, read-out: F (oral bioavailability)): 97.5%
AUC(0-t) [2, 9]: 602 ng·h/mL
Cmax [2, 9]: 66.2 ng/mL
F (oral bioavailability) ([2]; p.o): 97.57%
Structure (SMILES): CCOc1ccc(Cc2cc([C@]34OC[C@]([C@@H](C)O)(O3)[C@@H](O)[C@H](O)[C@H]4O)ccc2Cl)cc1 [Complex (IA), Complex (IA) of (1R,2S,3S,4R,5S)-5-(4-chloro-3-(4-ethoxybenzyl)phenyl)-1-((1R)-1-hydroxyethyl)-6,8-dioxabicyclo[3.2.1]octane-2,3,4-triol (I-n) and L-pyroglutamic acid]
solubility results [1, 3]: Very soluble (1 g (mL) of solute can be dissolved completely in a <1 mL of solvent)
solubility results [1, 4]: Very soluble (1 g (mL) of solute can be dissolved completely in a <1 mL of solvent)
solubility results [1, 5]: Soluble (1 g (mL) of solute can be dissolved completely in a 10 to <30 mL of solvent)
solubility results [1, 6]: Soluble (1 g (mL) of solute can be dissolved completely in a 10 to <30 mL of solvent)
solubility results [1, 7]: Very soluble (1 g (mL) of solute can be dissolved completely in a <1 mL of solvent)
SGLT-2 inhibitory activity (human SGLT-2; CHO cells expressing human SGLT-2, [14C]-AMG): has SGLT-2 and SGLT-1 inhibitory activity
inhibitory activity to SGLT-2 compared with SGLT-1 (human SGLT-2; SGLT-2 versus SGLT-1): the inhibitory activity to SGLT-2 is much more stronger than that to SGLT-1

Source: patent US10555930B2, “Complex of a glucopyranosyl derivative and preparation method and use thereof” (SUNSHINE LAKE PHARMA CO., LTD., priority 2015, dated 2020)
